For series [1], the system named is mouse splenocytes. Conditions: cited from earlier work.
The test system of series [2] is chemical-induced carcinogenesis. Conditions: mice; cited from earlier work.
Series [3] has as its system lymphocyte. The conditions noted are these: rats; cited from earlier work.
Series [4] is described as follows: uptake profile of plasma β-carotene after a single oral dose. Also noted: species or system dog (Beagle). Conditions: dog, in vivo. The procedure: (§1) Female Beagle dogs (18 to 19 months of age; 7 to 9 kg body weight) were fed a basal diet (The lams Co., Lewisburg, OH) which met or exceeded the requirement for all essential nutrients. Animals were housed indoors in light- (14 hr light; 10 hr dark) and temperature-controlled rooms. A test was conducted to study the uptake profile of β-carotene after a single oral dose of β-carotene.
To study the uptake of oral β-carotene in dogs given a single dose of β-carotene orally, dogs (n=6/treatment) were given once perorally 0, 50, 100 or 200 mg of β-carotene (10% cold water dissolvable; BASF Corp., Ludwigshafen, Germany). The appropriate dose of β-carotene was dissolved in 5 ml of water fed orally by using a feeding syringe. In order to establish appropriate sampling times, two dogs were used in a preliminary study. These dogs were fed once with 50 mg β-carotene and blood sampled at 0 (immediately prior to β-carotene feeding), 3, 6, 9, 12, 15, 18, 21 and 24 hr.
(§2) Blood plasma was separated by centrifugation and β-carotene concentrations were analyzed using high performance liquid chromatography (HPLC) as follows. All procedures were conducted under dim light. Duplicate aliquots of plasma, each leukocyte homogenate, and each leukocyte subcellular fraction were extracted with a 1:1 mixture of diethyl ether and petroleum ether in the presence of BHT. The ether phase was removed and dried under a stream of nitrogen. The residue was reconstituted in mobile phase for the HPLC determination of β-carotene. Samples (50 μl) were injected onto a 5 μm spherical C-18 reverse-phase column (3.9×150 mm; Resolve) and eluted with a 47:47:6 (v/v/v) mixture of acetonitrile, methanol, and chloroform at a flow rate of 1.0 ml/min.

Series [5] in a line: plasma β-carotene on daily feeding for 7 consecutive days. On the set-up: species or system dog (Beagle). The conditions noted are these: dog, in vivo. The procedure: as §1, §2
In a second study, the dogs (n=6/treatment) were fed daily at 0800 hr for 7 consecutive days with 0, 12.5, 25, 50 or 100 mg β-carotene. […] Plasma was isolated and analyzed for concentrations of β-carotene.

In series [6] the test system is blood lymphocytes. On the set-up: species or system dog (Beagle). Conditions: dog, in vivo. The procedure: as §1, §2
(§3) A third study was designed to study the uptake of β-carotene in dogs by blood lymphocytes. The dogs (n=8/treatment) were fed 0, 50 or 100 mg of β-carotene daily for 30 days. Blood was sampled from all dogs via the jugular vein on days 10, 20 and 30. Blood lymphocytes and neutrophils were separated by density gradient centrifugation. Cell numbers were enumerated. Lymphocytes and neutrophils were resuspended in PBS containing 3% sodium ascorbate as an antioxidant. An aliquot of the cell suspension was sonicated for 30 seconds to disrupt the cells. The leukocyte homogenates were extracted for HPLC analysis of β-carotene.
(§4) On day 30, a larger aliquot of blood was taken and leukocyte suspensions prepared as described above for subsequent subcellular fractionation. Cells were disrupted by sonication for 20 seconds in 5 volumes of 0.25 M sucrose. Sodium ascorbate was added as the antioxidant. The homogenate was centrifuged (600×g for 10 min at 4° C.) and the nuclear pellet separated from the supernatant. The postnuclear supernatant was centrifuged (17,300×g for 20 min at 4° C.) to separate the mitochondrial fraction. The postmitochondrial supernatant was centrifuged (102,000×g for 60 min at 4° C.) to separate the microsomal from the cytosolic fraction. Each subcellular fraction was analyzed for β-carotene content by HPLC.

Series [7] can be described thus: uptake of β-carotene by blood neutrophils and their subcellular fractions. Type of series: in vivo, dog (Beagle). The conditions noted are these: dog, blood neutrophils, po; 50 or 100 mg daily; read-out: time of maximal uptake by blood neutrophils. The procedure:
as §1, §2, §3, §4

Series [8] has as its system blood neutrophils. The series is described as above. Format: in vivo, dog (Beagle). The conditions noted are these: dog, in vivo. The procedure:
as §1, §2, §3, §4

Series [9] is classed as in vivo, dog (Beagle). The procedure: (§5) In a fourth study, female Beagles (4 to 5 mo old) were supplemented daily with 0, 25, 50 or 100 mg of β-carotene to study the role of dietary β-carotene in enhancing the cell-mediated and humoral immune systems of the dog. The following parameters were assessed in all the animals or in the peripheral blood lymphocytes: (1) delayed-type hypersensitivity (DTH) against PHA (nonspecific immunity) and vaccine (specific immunity), (2) lymphocyte proliferation, (3) lymphocyte populations and (4) immunoglobulins (Ig).

Series [10] relates to PHA (nonspecific immunity). Briefly: delayed-type hypersensitivity (DTH) against PHA, β-carotene feeding. Format: in vivo, dog (Beagle). Conditions: 50 mg of β-carotene. The procedure: as §5
In series [11] the test system is vaccine (specific immunity). Put plainly: delayed-type hypersensitivity (DTH) against vaccine, β-carotene feeding. Type of series: in vivo, dog (Beagle). The conditions noted are these: 20 or 50 mg of β-carotene. The procedure: (§6) The following parameters were assessed in all the animals or in the peripheral blood lymphocytes: (1) delayed-type hypersensitivity (DTH) against PHA (nonspecific immunity) and vaccine (specific immunity), (2) lymphocyte proliferation, (3) lymphocyte populations and (4) immunoglobulins (Ig).

The subject of series [12] is CD4+ cells. Briefly: lymphocyte populations, β-carotene feeding. Type of series: in vivo, dog (Beagle). The conditions noted are these: 20 or 50 mg, week 8, compared to controls. The procedure:
as §6

Series [13] has as its system CD8 cells. Put plainly: lymphocyte populations, β-carotene feeding. Format: in vivo, dog (Beagle). Conditions: 20 mg, weeks 2 and 4. The procedure:
as §6

The subject of series [14] is IgG. Briefly: immunoglobulins, β-carotene feeding. Format: in vivo, dog (Beagle). The conditions noted are these: as early as 1 week after supplementation. The procedure: as §5
The test system of series [15] is IgM. Put plainly: immunoglobulins, β-carotene feeding. Format: in vivo, dog (Beagle). Conditions: as early as 1 week after supplementation. The procedure:
as §5

Series [16] has as its system immunoglobulins (Ig). Briefly: immunoglobulins / antibody levels in the blood, β-carotene feeding. Format: in vivo, dog (Beagle). The procedure: FIG. 1 is a graph of antibody concentration in dogs (mg/dl) versus mg/kg diet of beta-carotene; and
as §6

Series [17] concerns lymphocyte. Briefly: mitogen-induced lymphocyte blastogenesis, β-carotene feeding. Type of series: cell-based, dog (Beagle). The procedure:
as §5

The test system of series [18] is IL-2. Put plainly: IL-2 production, β-carotene feeding. Format: cell-based, dog (Beagle).
Series [19] has as its system immune system. Briefly: summary of the results from each of the studies (Table 1). Format: in vivo, dog.
Series [20] concerns cancer. Conditions: supplementation alone, compared with diets high in antioxidants; cited from earlier work.
For series [21], the system named is lymphocyte. Put plainly: lymphocyte mitogenic response to ConA and PHA, vitamin E diets. Format: cell-based, dog (Beagle). Conditions: 8 weeks. The text has this: Twenty young (mean age 2 years) and 20 old (mean age 9.2 years) Beagles were fed a standard commercial chicken/corn-based diet formulated to contain 27 IU/kg diet of vitamin E (NRC recommendation) (control diet) for 1 month prior to the commencement of the experiment in order to stabilize the dogs' vitamin E levels. Young and old dogs were then randomly assigned to the diets containing 27 IU/kg diet of vitamin E or 280 IU/kg diet of vitamin E for 8 weeks. Blood was collected before and after 8 weeks of dietary treatments for measurement of plasma vitamin E levels and assessment of lymphocyte mitogenic response to ConA (concanavalin A) and PHA (phytohemagglutinin).

Setting [22] is: daily β-carotene supplementation.

Take `CC1=C(/C=C/C(C)=C/C=C/C(C)=C/C=C/C=C(C)/C=C/C=C(C)/C=C/C2=C(C)C(=O)[C@@H](O)CC2(C)C)C(C)(C)C[C@H](O)C1=O` [Astaxanthin, astaxanthin]: the “ex vivo antibody response of mouse splenocytes to T-dependent antigens” value in series [1] was “increase ex vivo antibody response”.

As for `CC1=C(/C=C/C(C)=C/C=C/C(C)=C/C=C/C=C(C)/C=C/C=C(C)/C=C/C2=C(C)C(=O)CCC2(C)C)C(C)(C)CCC1=O` [canthaxanthin], the chemical-induced carcinogenesis entry in [2] is recorded as “prevent chemical-induced carcinogenesis in mice”. Also, in series [3], the lymphocyte proliferation entry is reported as “increase lymphocyte proliferation in rats”.

Consider `CC1=C(/C=C/C(C)=C/C=C/C(C)=C/C=C/C=C(C)/C=C/C=C(C)/C=C/C2=C(C)CCCC2(C)C)C(C)(C)CCC1` [β-carotene], for which the “concentration of β-carotene in plasma of dogs, lower than in cats” value in [4] is 10-16 fold. In addition, in series [4] (po), the “peak concentrations of blood β-carotene, dogs versus cats” value is given as “occurred earlier in dogs than in cats”. Moreover, the Tmax in series [4] (po, preliminary study, two dogs, 50 mg once orally, plasma, read-out: time of peak concentrations of β-carotene) was in the range of 3 to 6 h. The “plasma β-carotene after the last dose, higher than after the first dose” value in series [5] is recorded as 2.5-4 fold. For the same molecule, in series [6], the “share of total β-carotene in lymphocytes, cytosol” value was 52-62%; the “share of total β-carotene in lymphocytes, microsomes” value is 16-23%; the “share of total β-carotene in lymphocytes, mitochondria” value is listed as 14-17%; the “share of total β-carotene in lymphocytes, nuclei” value is on record as 6-8%. The “β-carotene concentrations in lymphocytes, 50 versus 100 mg” value in series [6] is “no significant treatment difference”. Further, in series [7], the Tmax was at most 240 h. Moreover, in series [8], the “dose effect on uptake by blood neutrophils” value is on record as “No significant dose effect was observed”, the “β-carotene in the cytosolic fraction of blood neutrophils” value is on record as 61-68 and the “β-carotene in the nuclei of blood neutrophils” value is on record as “not detected”. In series [9] (setting [22]), the plasma retinol result is recorded as “did not influence” and the “plasma α-tocopherol” value was “did not influence”. For the same molecule, the “plasma β-carotene concentrations” value in series [9] (dog, in vivo) is “increased plasma β-carotene concentrations in a dose-dependent manner”. Moreover, the “DTH response to PHA challenge” value in series [10] was “greatest response”. In addition, the “DTH response to the vaccine” value in [11] is given as “significantly higher DTH response”. In addition, in series [12], the “population of CD4+ cells” value is listed as “elevated population of CD4+ cells”. In addition, the “population of CD8 cells” value in [13] is “elevated population of CD8 cells”. The “concentration of IgG” value in [14] is given as “increased significantly”. Besides, the “concentration of total IgG” value in series [14] (total IgG) is “increased significantly”. In series [15], the “concentration of IgM” value is on record as “increased significantly”. Further, the “increases in Ig” value in series [16] (0 to 20 mg of β-carotene) is “dose dependent”. The “antibody response for both Ig” value in [16] (20 mg of β-carotene) is “consistently had the greatest antibody response”. In series [16] (FIG. 1, addition of β-carotene to the diet), the “increase in antibody levels in the blood” value is on record as 20%. For the same molecule, in series [16] (highest level, 50 mg), the “increases in Ig” value is “did not produce a further increase”. In [17], the mitogen-induced lymphocyte blastogenesis result is recorded as “did not influence”. Further, the IL-2 production entry in [18] was “did not influence”. Moreover, in series [19] (Table 1), the “Increase antibody levels in the blood” value is listed as “.check mark”, the “Optimize types of cells present in the blood” value is given as “.check mark” and the “Optimize vaccine recognition by the dog” value is reported as “.check mark”. In addition, the “ex vivo antibody response of mouse splenocytes to T-dependent antigens” value in series [1] is on record as “increase ex vivo antibody response”. Also, the magnitude of protection result in [20] is listed as “do not provide the same magnitude of protection”.

Take vitamin E: the “ConA and PHA-stimulated proliferation” value in [21] (dogs supplemented with 280 IU/kg diet) was “No such decrease was observed”; in series [21] (young dogs, 27 IU/kg diet) it was “significant decrease”. Also, in series [21] (old dogs, 27 or 280 IU/kg diet), the mitogen-stimulated lymphocyte proliferation result is “did not show a significant change”. Further, in [19] (Table 1, Vitamin E column), the “Optimize immune cell activity (T-cells)” value is listed as “.check mark”. Besides, the magnitude of protection entry in [20] is “do not provide the same magnitude of protection”.

Source of the values: patent US6310090A, “Process and product for enhancing immune response in companion animals using a combination of antioxidants” (priority 2000, dated 2001).
